Species: Rattus norvegicus
Assay: Open TG-GATES - Regimen: Single
Format: toxicity, organism-based, Sprague-Dawley
Design: regimen Single, gender Male, age 6 weeks
Settings: in vivo, po, 80 mg/kg, route gavage, dose level Middle; for APTT / Bas / Eos / Fbg / Hb / Ht / Lym / MCH / MCHC / MCV / Mono / Neu / PT / Plat / RBC / Ret / WBC: tissue Blood; for KIDNEY_L / KIDNEY_R / KIDNEY_TOTAL: tissue Kidney; for LIVER: tissue Liver; for A/G / ALP / ALT / AST / BUN / CRE / Ca / Cl / DBIL / GLC / IP / K / LDH / Na / PL / RALB / TBIL / TC / TG / TP / gamma-GTP: tissue Plasma

CCSCC[C@H](N)C(=O)O [ETHIONINE]
TERMINAL_BW (3 h): 217.5 g | APTT (3 h): 18.6 s | Bas (3 h): 0% | Eos (3 h): 1% | Fbg (3 h): 209 mg/dL | Hb (3 h): 13.4 g/dL | Ht (3 h): 39.6% | Lym (3 h): 77.8% | MCH (3 h): 21.3 pg | MCHC (3 h): 33.9% | MCV (3 h): 62.7 fL | Mono (3 h): 2.8% | Neu (3 h): 17.6% | PT (3 h): 12.4 s | Plat (3 h): 119.9 x10_4/uL | RBC (3 h): 631.4 x10_4/ul | Ret (3 h): 6.8% | WBC (3 h): 71.3 x10_2/uL | KIDNEY_L (3 h): 1 g | KIDNEY_R (3 h): 1 g | KIDNEY_TOTAL (3 h): 1.9 g | LIVER (3 h): 9.9 g | A/G (3 h): 1.6 | ALP (3 h): 765.4 IU/L | ALT (3 h): 33 IU/L | AST (3 h): 62.8 IU/L | BUN (3 h): 10.4 mg/dL | CRE (3 h): 0.4 mg/dL | Ca (3 h): 10.3 mg/dL | Cl (3 h): 101.4 meq/L | DBIL (3 h): 0.052 mg/dL | GLC (3 h): 207.4 mg/dL | IP (3 h): 10 mg/dL | K (3 h): 3.8 meq/L | LDH (3 h): 171.6 IU/L | Na (3 h): 140.4 meq/L | PL (3 h): 120.8 mg/dL | RALB (3 h): 3.3 g/dL | TBIL (3 h): 0.1 mg/dL | TC (3 h): 68.2 mg/dL | TG (3 h): 43.8 mg/dL | TP (3 h): 5.4 g/dL | gamma-GTP (3 h): 1.4 IU/L | TERMINAL_BW (6 h): 212.9 g | APTT (6 h): 18.2 s | Bas (6 h): 0% | Eos (6 h): 1% | Fbg (6 h): 215 mg/dL | Hb (6 h): 13.5 g/dL | Ht (6 h): 39.6% | Lym (6 h): 79.4% | MCH (6 h): 21.4 pg | MCHC (6 h): 34.1% | MCV (6 h): 62.7 fL | Mono (6 h): 2.2% | Neu (6 h): 16.6% | PT (6 h): 12.9 s | Plat (6 h): 116.1 x10_4/uL | RBC (6 h): 632 x10_4/ul | Ret (6 h): 6.3% | WBC (6 h): 88 x10_2/uL | KIDNEY_L (6 h): 1 g | KIDNEY_R (6 h): 1 g | KIDNEY_TOTAL (6 h): 1.9 g | LIVER (6 h): 9.2 g | A/G (6 h): 1.7 | ALP (6 h): 877.2 IU/L | ALT (6 h): 35.6 IU/L | AST (6 h): 65.2 IU/L | BUN (6 h): 10.6 mg/dL | CRE (6 h): 0.3 mg/dL | Ca (6 h): 10.3 mg/dL | Cl (6 h): 102.6 meq/L | DBIL (6 h): 0.058 mg/dL | GLC (6 h): 207.4 mg/dL | IP (6 h): 9.4 mg/dL | K (6 h): 3.7 meq/L | LDH (6 h): 191.2 IU/L | Na (6 h): 140.4 meq/L | PL (6 h): 116.6 mg/dL | RALB (6 h): 3.3 g/dL | TBIL (6 h): 0.1 mg/dL | TC (6 h): 58.8 mg/dL | TG (6 h): 54.2 mg/dL | TP (6 h): 5.4 g/dL | gamma-GTP (6 h): 1 IU/L | TERMINAL_BW (9 h): 215.1 g | APTT (9 h): 19.5 s | Bas (9 h): 0% | Eos (9 h): 1% | Fbg (9 h): 205.4 mg/dL | Hb (9 h): 13.3 g/dL | Ht (9 h): 39% | Lym (9 h): 76% | MCH (9 h): 21 pg | MCHC (9 h): 34.1% | MCV (9 h): 61.4 fL | Mono (9 h): 2.4% | Neu (9 h): 19.4% | PT (9 h): 13.1 s | Plat (9 h): 117 x10_4/uL | RBC (9 h): 634.6 x10_4/ul | Ret (9 h): 6.7% | WBC (9 h): 77.6 x10_2/uL | KIDNEY_L (9 h): 1 g | KIDNEY_R (9 h): 1 g | KIDNEY_TOTAL (9 h): 1.9 g | LIVER (9 h): 9.1 g | A/G (9 h): 1.5 | ALP (9 h): 727 IU/L | ALT (9 h): 28.8 IU/L | AST (9 h): 54.8 IU/L | BUN (9 h): 10.6 mg/dL | CRE (9 h): 0.3 mg/dL | Ca (9 h): 10.4 mg/dL | Cl (9 h): 101.4 meq/L | DBIL (9 h): 0.086 mg/dL | GLC (9 h): 197.6 mg/dL | IP (9 h): 9.7 mg/dL | K (9 h): 3.6 meq/L | LDH (9 h): 174.2 IU/L | Na (9 h): 140.6 meq/L | PL (9 h): 133 mg/dL | RALB (9 h): 3.4 g/dL | TBIL (9 h): 0.1 mg/dL | TC (9 h): 70.4 mg/dL | TG (9 h): 95.6 mg/dL | TP (9 h): 5.6 g/dL | gamma-GTP (9 h): 1.4 IU/L | TERMINAL_BW (24 h): 227.7 g | APTT (24 h): 20.7 s | Bas (24 h): 0% | Eos (24 h): 1% | Fbg (24 h): 224 mg/dL | Hb (24 h): 13.7 g/dL | Ht (24 h): 40.7% | Lym (24 h): 79.8% | MCH (24 h): 21.1 pg | MCHC (24 h): 33.7% | MCV (24 h): 62.7 fL | Mono (24 h): 3.6% | Neu (24 h): 14% | PT (24 h): 13.6 s | Plat (24 h): 122.5 x10_4/uL | RBC (24 h): 649.8 x10_4/ul | Ret (24 h): 6.5% | WBC (24 h): 97.9 x10_2/uL | KIDNEY_L (24 h): 1 g | KIDNEY_R (24 h): 1 g | KIDNEY_TOTAL (24 h): 2.1 g | LIVER (24 h): 11.3 g | A/G (24 h): 1.5 | ALP (24 h): 1010.2 IU/L | ALT (24 h): 37 IU/L | AST (24 h): 69 IU/L | BUN (24 h): 13.4 mg/dL | CRE (24 h): 0.4 mg/dL | Ca (24 h): 10.8 mg/dL | Cl (24 h): 101.2 meq/L | DBIL (24 h): 0.09 mg/dL | GLC (24 h): 215.8 mg/dL | IP (24 h): 8.8 mg/dL | K (24 h): 3.8 meq/L | LDH (24 h): 210.6 IU/L | Na (24 h): 139.4 meq/L | PL (24 h): 129.6 mg/dL | RALB (24 h): 3.5 g/dL | TBIL (24 h): 0.1 mg/dL | TC (24 h): 57.6 mg/dL | TG (24 h): 98.2 mg/dL | TP (24 h): 5.8 g/dL | gamma-GTP (24 h): 1 IU/L
